Laboratory results as given in patent publication US12037363B2, “Peptides for Covid-19 prevention and treatment” (SOTIRA COVID, LLC, priority 2020, dated 2024).

Key:
[1] = target: full-length ACE-2 protein (Homo sapiens, UniProt Q9BYF1); experiment: BLItz label-free bio-layer interferometry assay; assay type: binding
Protocol: The ACIS peptide is specifically designed from the part of S-glycoprotein that is conserved only in the coronaviral family. Because of this specificity there is no possibility of any off-target effect. […] Blitz assay was used to confirm the specificity of ACIS peptide towards ACE-2 protein.
The experiment was performed based on manufacturer's instructions. Briefly, biotinylated ACIS peptide was bound to the BLItz streptavidin-linked biosensor. Different doses of ACE-2 enzyme were then charged to the ACIS peptide and then washed.
To further characterize the binding between ACIS and ACE-2, BLItz label-free bio-layer interferometry assay was performed. ACIS (0.25 μg/μL) was loaded to the sensor and titrated with different concentration of ACE-2 protein starting with the concentration as low as 10 nM. […] BLItz sensor was loaded with ACIS peptide (0.25 μg/μL) followed by titration with different concentrations of ACE-2 enzyme starting from nM range.
This can prevent or inhibit the infection of a host cell by SARS-CoV2 virus.

[2] = system: SARS-CoV2 (SARS CoV-2 USA_WA1/2020) in VERO cells; experiment: Cytopathic effect (agar monolayer invasion) test of supernatants of treated VERO cells; assay type: cell-based
[3] = system: SARS-CoV2 in VERO E6 cells; experiment: dual immunostaining of ACIS peptide and S-glycoprotein in infected VERO cells; assay type: cell-based; conditions: 25 μM
Protocol: Further confirming the profound activity of KEPTIDE COVIDs in the attenuation of viral infection, a dual immunostaining analyses with ACIS peptide (green) and S-glycoprotein (red) was performed. DAPI staining was carried out to identify big nuclei of VERO cells. […] The result was further corroborated with a quantification study that clearly indicated a strong inhibition of viral load around ACIS-treated VERO cells (***p<0.0001) (FIG. 6B).
In order to evaluate the efficacy of the KEPTIDE COVID in suppressing the secondary or chronic infection of SARS-COV2, testing was performed by dual immunostaining procedure after six hours of viral infection. […] The effect was further confirmed with a quantitative analysis (FIG. 7B).
Double Immunocytochemistry analyses was performed where […] VERO Cells were plated per well in 8-well chamber slide. Cells were starved with serum-free DMEM media for 30 mins followed by the treatment with 25 μM FITC-labeled KEPTIDE COVID. After another 30 mins, unbound KEPTIDE COVIDs were aspirated and then added SARS-CoV2 at a dose of 1-2 PFU/cell. After 2 and 6 hours of virus treatment, viral cells were removed, VERO cells were fixed with 8% PFA and kept at 4° C. for overnight. […]

ACE-2 [4] = target: T1, ACE-2 (Homo sapiens, UniProt Q9BYF1); experiment: surface plasmon resonance (SPR); conditions: different concentrations of ACIS as analyte; hyperbolic binding curve
ACE-2 [5] = target: T1, ACE-2; experiment: fluorescence polarization (FP) assay; assay type: binding; conditions: FITC tag at C-terminal end (FIG. 3C)
[6] = target: T2, interaction between S-glycoprotein and ACE-2 protein (Homo sapiens, UniProt Q9BYF1); experiment: kit-based luminometric inhibitor screen assay; assay type: biochemical, SARS-CoV2
T2 construct: purchased
Text: A kit-based luminometric inhibitor screen assay was used to evaluate the efficacy of the biotinylated and FITC labeled ACIS in inhibiting the interaction between S-glycoprotein and ACE-2 protein.

[7] = system: SARS-CoV2 in VERO E6 cells; experiment: SARS-CoV2 plaque assay in VERO E6 cells; assay type: cell-based; conditions: 25 μM pre-incubation 30 mins; compared to control; KEPTIDE1 at 1:20 dilution dose

T1 sequence (Q9BYF1 18-805): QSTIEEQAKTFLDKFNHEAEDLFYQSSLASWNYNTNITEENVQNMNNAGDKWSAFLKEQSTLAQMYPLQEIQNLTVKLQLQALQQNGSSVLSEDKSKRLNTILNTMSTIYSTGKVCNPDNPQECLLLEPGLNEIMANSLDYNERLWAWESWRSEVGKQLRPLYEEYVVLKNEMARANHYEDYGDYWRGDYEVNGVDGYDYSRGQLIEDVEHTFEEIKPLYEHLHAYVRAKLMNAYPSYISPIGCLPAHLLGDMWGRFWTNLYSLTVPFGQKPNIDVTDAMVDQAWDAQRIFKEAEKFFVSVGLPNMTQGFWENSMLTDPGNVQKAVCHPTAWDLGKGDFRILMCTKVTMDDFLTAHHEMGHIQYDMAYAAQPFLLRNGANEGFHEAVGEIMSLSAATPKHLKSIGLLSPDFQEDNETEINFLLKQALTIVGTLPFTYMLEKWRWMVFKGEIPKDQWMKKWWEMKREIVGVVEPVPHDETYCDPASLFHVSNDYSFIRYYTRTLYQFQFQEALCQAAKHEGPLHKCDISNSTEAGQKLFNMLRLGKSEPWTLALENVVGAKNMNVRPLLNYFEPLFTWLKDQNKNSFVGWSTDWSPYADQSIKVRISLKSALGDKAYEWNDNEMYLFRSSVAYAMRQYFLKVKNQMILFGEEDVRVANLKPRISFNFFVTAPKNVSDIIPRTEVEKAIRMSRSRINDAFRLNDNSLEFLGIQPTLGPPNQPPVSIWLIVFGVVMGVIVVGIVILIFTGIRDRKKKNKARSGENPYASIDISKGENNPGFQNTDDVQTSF
full-length ACE-2 protein, sequence (Q9BYF1 18-805): as above
T2 sequence (Q9BYF1 18-740): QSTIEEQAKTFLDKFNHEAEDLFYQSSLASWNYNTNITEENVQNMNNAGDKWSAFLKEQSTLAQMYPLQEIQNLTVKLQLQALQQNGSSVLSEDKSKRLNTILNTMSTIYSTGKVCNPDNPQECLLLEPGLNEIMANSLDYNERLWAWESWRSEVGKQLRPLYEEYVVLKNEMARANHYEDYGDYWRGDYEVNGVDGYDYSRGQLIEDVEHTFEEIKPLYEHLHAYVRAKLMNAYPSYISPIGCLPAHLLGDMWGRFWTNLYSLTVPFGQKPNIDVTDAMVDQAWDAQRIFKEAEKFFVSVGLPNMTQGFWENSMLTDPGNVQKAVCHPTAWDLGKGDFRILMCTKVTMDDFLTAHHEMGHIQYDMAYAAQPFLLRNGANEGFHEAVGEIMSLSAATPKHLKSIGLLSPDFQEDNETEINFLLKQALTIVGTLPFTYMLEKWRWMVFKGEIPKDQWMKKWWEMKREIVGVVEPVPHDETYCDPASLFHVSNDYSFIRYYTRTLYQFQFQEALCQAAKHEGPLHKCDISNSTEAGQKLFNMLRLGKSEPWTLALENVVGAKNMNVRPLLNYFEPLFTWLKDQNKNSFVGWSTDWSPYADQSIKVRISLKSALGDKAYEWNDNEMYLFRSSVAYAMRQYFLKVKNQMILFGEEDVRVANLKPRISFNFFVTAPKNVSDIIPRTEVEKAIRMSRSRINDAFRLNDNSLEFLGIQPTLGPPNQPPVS

Structure (SMILES) | Kd [1] | minimum concentration with dose-dependent binding ([1]; sensor loaded with ACIS 0.25 μg/μL, titrated with ACE-2) | damage of agar monolayer (loss of CV staining) by viral supernatants of treated VERO cells [2] | inhibition of viral particles, secondary or chronic infection ([3]; 6 hours of infection) | inhibition of entry of viral particles, acute infection ([3]; two hours of SARS-CoV2 treatment (1-2 PFU)) | interaction with ACE-2 enzyme (binding curve) (ACE-2 [4]) | concentration at which peptide binds with ACE-2 (ACE-2 [5]) | hillslope of the inhibition plot [6] | increase in protection, densitometric quantification of plaque assay [7]
CC(C)[C@H](NC(=O)CNC(=O)[C@H](CC(N)=O)NC(=O)[C@@H](NC(=O)[C@@H]1CCCN1C(=O)[C@H](CCC(N)=O)NC(=O)[C@@H](N)Cc1ccccc1)[C@@H](C)O)C(=O)NCC(=O)N[C@@H](Cc1ccc(O)cc1)C(=O)N[C@@H](CCC(N)=O)C(=O)N1CCC[C@H]1C(=O)N[C@@H](Cc1ccc(O)cc1)C(=O)NCC(=O)O [ACIS peptide, FQPTNGVGYQPYG] | 115 nM | 13 nM | significant damage in agar monolayer | continued to repel viral particles significantly from VERO cells | substantially inhibit the entry of viral particles | strong interaction with ACE-2 enzyme | – | – | –
CC(C)[C@H](NC(=O)CNC(=O)[C@H](CC(N)=O)NC(=O)[C@@H](NC(=O)[C@@H]1CCCN1C(=O)[C@H](CCC(N)=O)NC(=O)[C@@H](N)Cc1ccccc1)[C@@H](C)O)C(=O)NCC(=O)N[C@@H](Cc1ccc(O)cc1)C(=O)N[C@@H](CCC(N)=O)C(=O)N1CCC[C@H]1C(=O)N[C@@H](Cc1ccc(O)cc1)C(=O)NCC(=O)N[C@@H](CCCCNC(=S)Nc1ccc2c(c1)C(=O)OC21c2ccc(O)cc2Oc2cc(O)ccc21)C(=O)O [KEPTIDE2] | – | – | – | – | – | – | 6.376 nM | −2.4 | three-fold increase in protection
